From patent US4952580A, “Pesticidal polyhaloalkene derivatives” (priority 1988, dated 1990)
Read-outs that look alike come from different tables or passages of the source.

What was measured:
[1] = test system: root-knot nematode (Meloidogyne incognita); test: Initial Root-Knot Nematicidal Activity; assay type: in vivo; conditions: 336 h, read-out: Percent Control; for pest or weed control at 0.312 ppm: Table 2, Application Rate 0.312 ppm; for pest or weed control at 0.625 ppm: Table 2, Application Rate 0.625 ppm; for pest or weed control at 1.25 ppm: Table 2, Application Rate 1.25 ppm; for pest or weed control at 0.313 ppm: Table 2, Application Rate 0.313 ppm; for pest or weed control at 0.078 ppm: Table 2, Application Rate 0.078 ppm; for pest or weed control at 0.156 ppm: Table 2, Application Rate 0.156 ppm
Method: (§1) Compounds of this invention were tested as follows for nematicidal and anthelmintic activity as dust formulations (initial and residual activity) and as acetone/water formulations (systemic activity). The formulations are described above.
The activity against root-knot nematode (Meloidogyne incognita) was determined by incorporating the compound of the invention in nematode infested soil at rates in the range of 10 ppm to 0.078 ppm of compound. Several tomato or cucumber seedlings were planted in the nematode infested soil. Two weeks after planting the test pots were evaluated to ascertain the degree of galling (swelling) on the roots of the plants, indicating the control provided by the test chemical.
The results expressed as precent control (determined by knot index) are set forth as averages in Table 2 (appended). Knot index is a numerical designation assigned at evaluation, having the following meanings:
Percent control is related to knot index as follows:
When the Knot Index is between 0 and 1 it is further subdivided as follows to indicate how close the percent control is to 75% or 100%: […]

Caenorhabditis elegans = test: C. Elegans Nematode Screening Test and Evaluation (in-vitro); conditions: for inhibition at 5 ppm / mortality at 5 ppm / inhibition at 1.25 ppm / mortality at 1.25 ppm / inhibition at 2.5 ppm / mortality at 2.5 ppm: Caenorhabditis elegans; for inhibition at 5 ppm / inhibition at 1.25 ppm / inhibition at 2.5 ppm: read-out: Percent Inhibition of Reproduction; for mortality at 5 ppm / mortality at 1.25 ppm / mortality at 2.5 ppm: read-out: Percent Mortality
Method: This in-vitro test using the free-living nematode Caenorhabditis elegans, is a modification of the assay developed by Simpkin and Coles, J. Chem. Tech. […] One milliliter of a test medium consisting of 5 mg ampicillin, 10,000 units of mycostatin and 10 ml of a dense suspension of Escherichia coli per 100 ml of a buffer solution, was pipetted into each well of a 24-well microtiter plate. The candidate nematicide, suspended at the appropriate concentration in dimethylsulfoxide, was added to the wells in […] volumes. Each rate of application was replicated two to three times. After thorough mixing of the contents of each well, 50 to 100 μl of a nematode suspension in a buffer was added so that each well received 10-15 nematodes. After the nematodes were added, the microtiter plates were incubated at 20° C. for 5-6 days.
The effect of the candidate nematicide on the survival and the reproduction of C. elegans was then evaluated by comparison of the level of population developed in the treated wells with that in untreated wells. Specific effects on population development, such as reduced egg hatch or molting disruption, were noted if they were evident.

lesion nematode = test: Lesion Nematode Test; assay type: in vivo; conditions: read-out: Percent Control
Method: as §1
The procedure was substantially the same as in the stunt nematode test described above except that pea seedlings were used. The results (Table 5 appended) show good control with many of the compounds at the application rates tested as compared with untreated samples (no control). "Percent Control" is defined as follows: [formula]

root-knot nematode = test: Soil Mobility against root-knot nematode; assay type: in vivo, Meloidogyne incognita; conditions: 336 h, Table 7a, 5% dust, 5 ppm, read-out: Percent Control
Method: as §1
The ability of nematicidal compounds of the invention to move through nematode-infested soil […] infested soil, and subsequently eluting the soil with 15 cm of water (equivalent to 15 cm of rainfall) into a series of two or more pots of untreated, but nematode-infested, soil. Specifically, the pots were 8 cm diameter plastic pots containing a 10 cm^3 layer of sand over a coarse grade filter paper disc. Sufficient soil was placed over the sand to fill the pots, and a second filter paper disc was placed over the soil. Each test compound-treated pot was nested over a series of two or more pots containing untreated, but nematode-infested soil, also containing sand filter paper discs as described for the treated soil pots. Fifteen cm of water was slowly dripped into the top pots and the pots were allowed to drain for 16-18 hours to remove excess water. The top filter of each pot was then removed and the pots were planted with a cucumber or tomato seedling. […] "Knot Index" and "Percent Control" are as defined in the initial root-knot nematode tests above.

[2] = Table 2, Application Rate 2.5 ppm
[3] = Table 2, Application Rate 5.0 ppm
[4] = Table 2, Application Rate 10.0 ppm

Compound: O=C(CSC1=NCCS1)OCCC(F)=C(F)F [Compound 23, (3,4,4-trifluoro-3-butenyl) [2-(4,5-dihydrothiazolyl)thio]acetate]
- pest or weed control at 2.5 ppm [1, 2]: 76%
- pest or weed control at 5 ppm [1, 3]: 84%
- pest or weed control at 10 ppm [1, 4]: 96%

Compound: FC(F)=C(F)CCSc1nc(-c2ccc(Cl)cc2)no1 [Compound 39, 3-(4-chlorophenyl)-5-(3,4,4-trifluoro-3-butenylthio)-1,2,4-oxadiazole]
- pest or weed control at 0.312 ppm [1]: 19%
- pest or weed control at 0.625 ppm [1]: 84%
- pest or weed control at 1.25 ppm [1]: 98%
- pest or weed control at 2.5 ppm [1, 2]: 100%
- inhibition at 5 ppm (Caenorhabditis elegans; Table 9 screen, 5 ppm): 100%
- mortality at 5 ppm (Caenorhabditis elegans; Table 9 screen, 5 ppm): 100%
- mortality at 5 ppm (Caenorhabditis elegans; Table 10 evaluation, 5 ppm): 100%
- inhibition at 1.25 ppm (Caenorhabditis elegans; Table 10 evaluation, 1.25 ppm): 100%
- mortality at 1.25 ppm (Caenorhabditis elegans; Table 10 evaluation, 1.25 ppm): 67%
- inhibition at 2.5 ppm (Caenorhabditis elegans; Table 10 evaluation, 2.5 ppm): 100%
- mortality at 2.5 ppm (Caenorhabditis elegans; Table 10 evaluation, 2.5 ppm): 100%
- Percent Mortality (Caenorhabditis elegans; Table 10 evaluation, 1.25 ppm): 58%
- Percent Mortality (Caenorhabditis elegans; Table 10 evaluation, 2.5 ppm): 100%
- Percent Mortality (Caenorhabditis elegans; Table 10 evaluation, 5 ppm): 100%

Compound: O=C1c2ccccc2S(=O)(=O)N1CCC(F)=C(F)F [Compound 24, N-(3,4,4-trifluoro-3-butenyl)saccharine]
- pest or weed control at 2.5 ppm [1, 2]: 19%
- pest or weed control at 5 ppm [1, 3]: 63%
- pest or weed control at 10 ppm [1, 4]: 78%

Compound: O=C(OCCC(F)=C(F)F)c1ccc[nH]1 [Compound 22, (3,4,4-trifluoro-3-butenyl) 2-pyrrolecarboxylate]
- pest or weed control at 0.313 ppm [1]: 0%
- pest or weed control at 0.625 ppm [1]: 0%
- pest or weed control at 1.25 ppm [1]: 44%
- pest or weed control at 2.5 ppm [1, 2]: 96%

Compound: O=[N+]([O-])c1ccc(CSc2nsc(SCCC(F)=C(F)F)n2)cc1 [Compound 26, 3-(4-nitrophenylmethylthio)-5-(3,4,4-trifluoro-3-butenylthio)-1,2,4-thiadiazole]
- pest or weed control at 0.312 ppm [1]: 0%
- pest or weed control at 0.625 ppm [1]: 0%
- pest or weed control at 1.25 ppm [1]: 63%
- pest or weed control at 2.5 ppm [1, 2]: 86%
- inhibition at 5 ppm (Caenorhabditis elegans; Table 9 screen, 5 ppm): 100%
- mortality at 5 ppm (Caenorhabditis elegans; Table 9 screen, 5 ppm): 100%
- mortality at 5 ppm (Caenorhabditis elegans; Table 10 evaluation, 5 ppm): 100%
- inhibition at 1.25 ppm (Caenorhabditis elegans; Table 10 evaluation, 1.25 ppm): 100%
- mortality at 1.25 ppm (Caenorhabditis elegans; Table 10 evaluation, 1.25 ppm): 100%
- inhibition at 2.5 ppm (Caenorhabditis elegans; Table 10 evaluation, 2.5 ppm): 100%
- mortality at 2.5 ppm (Caenorhabditis elegans; Table 10 evaluation, 2.5 ppm): 100%

Compound: O=C(OCCC(F)=C(F)F)C(F)(F)C(F)(F)C(F)(F)F [Compound 3, (3,4,4-trifluoro-3-butenyl) heptafluorobutyrate]
- pest or weed control at 2.5 ppm [1]: 71%
- pest or weed control at 5 ppm [1]: 83%
- pest or weed control at 10 ppm [1]: 95%

Compound: O=C1CCC(=O)N1CCC(F)=C(F)F [Compound 5, N-(3,4,4-trifluoro-3-butenyl)succinimide]
- pest or weed control at 0.313 ppm [1]: 0%
- pest or weed control at 0.625 ppm [1]: 6%
- pest or weed control at 1.25 ppm [1]: 70%
- pest or weed control at 2.5 ppm [1, 2]: 81%

Compound: OCCCC(F)=C(F)F [Compound 7, 4,5,5-trifluoro-4-penten-1-ol]
- pest or weed control at 2.5 ppm [1, 2]: 25%
- pest or weed control at 5 ppm [1, 3]: 44%
- pest or weed control at 10 ppm [1, 4]: 79%

Compound: C#CCSc1nnc(SCCC(F)=C(F)F)s1 [Compound 14, 2-propargylthio-5-(3,4,4-trifluoro-3-butenylthio)-1,3,4-thiadiazole]
- pest or weed control at 0.313 ppm [1]: 0%
- pest or weed control at 0.625 ppm [1]: 0%
- pest or weed control at 1.25 ppm [1]: 25%
- pest or weed control at 2.5 ppm [1, 2]: 83%

Compound: O=C(OCCC(F)=C(F)F)C(F)(F)C(F)(F)F [Compound 19, (3,4,4-trifluoro-3-butenyl) pentafluoropropionate, mono diethyl etherate]
- pest or weed control at 2.5 ppm [1, 2]: 58%
- pest or weed control at 5 ppm [1, 3]: 75%
- pest or weed control at 10 ppm [1, 4]: 69%

Compound: O=C(OCCC(F)=C(F)F)c1cccs1 [Compound 20]
- pest or weed control at 0.313 ppm [1]: 0%
- pest or weed control at 0.625 ppm [1]: 6%
- pest or weed control at 1.25 ppm [1]: 63%
- pest or weed control at 2.5 ppm [1, 2]: 98%

Compound: O=[N+]([O-])c1ccc(-c2noc(SCCC(F)=C(F)F)n2)cc1 [Compound 40, 3-(4-nitrophenyl)-5-(3,4,4-trifluoro-3-butenylthio)-1,2,4-oxadiazole]
- pest or weed control at 0.312 ppm [1]: 0%
- pest or weed control at 0.625 ppm [1]: 56%
- pest or weed control at 1.25 ppm [1]: 84%
- pest or weed control at 2.5 ppm [1, 2]: 99%
- inhibition at 5 ppm (Caenorhabditis elegans; Table 10 evaluation, 5 ppm): 100%
- mortality at 5 ppm (Caenorhabditis elegans; Table 10 evaluation, 5 ppm): 100%
- inhibition at 1.25 ppm (Caenorhabditis elegans; Table 10 evaluation, 1.25 ppm): 100%
- mortality at 1.25 ppm (Caenorhabditis elegans; Table 10 evaluation, 1.25 ppm): 100%
- inhibition at 2.5 ppm (Caenorhabditis elegans; Table 10 evaluation, 2.5 ppm): 100%
- mortality at 2.5 ppm (Caenorhabditis elegans; Table 10 evaluation, 2.5 ppm): 100%

Compound: FC(F)=C(F)CCSc1cccs1 [Compound 10, 2-(3,4,4-trifluoro-3-butenylthio)thiopene]
- pest or weed control at 0.625 ppm [1]: 63%
- pest or weed control at 1.25 ppm [1]: 81%
- pest or weed control at 5 ppm [1, 3]: 99%
- pest or weed control at 2.5 ppm [1]: 95%
- pest or weed control at 2.5 ppm (lesion nematode): 33%

Compound: FC(F)=C(F)CCSCc1cc2ccccc2s1 [Compound 11, 2-(3,4,4-trifluoro-3-butenylthiomethyl)-thianaphthene]
- pest or weed control at 0.625 ppm [1]: 0%
- pest or weed control at 1.25 ppm [1]: 67%
- pest or weed control at 2.5 ppm [1, 2]: 78%
- pest or weed control at 5 ppm [1, 3]: 83%

Compound: O=C(OCCC(F)=C(F)F)c1ccc(Cl)cc1 [Compound 4, (3,4,4-trifluoro-3-butenyl) 4-chlorobenzoate]
- pest or weed control at 0.313 ppm [1]: 38%
- pest or weed control at 0.625 ppm [1]: 44%
- pest or weed control at 1.25 ppm [1]: 56%
- pest or weed control at 2.5 ppm [1, 2]: 99%

Compound: FC(F)=C(F)CCSc1nc(Cc2ccc(F)cc2)no1 [Compound 38, 3-(4-fluorophenylmethyl)-5-(3,4,4-trifluoro-3-butenylthio)-1,2,4-oxadiazole]
- pest or weed control at 0.312 ppm [1]: 63%
- pest or weed control at 0.625 ppm [1]: 76%
- pest or weed control at 1.25 ppm [1]: 96%
- pest or weed control at 2.5 ppm [1, 2]: 98%
- pest or weed control at 5 ppm (root-knot nematode; BOTTOM container): 0%
- pest or weed control at 5 ppm (root-knot nematode; MIDDLE container): 0%
- pest or weed control at 5 ppm (root-knot nematode; TOP container): 0%

Compound: FC(F)=C(F)CCSc1nnc(SCc2ccccc2F)s1 [Compound 34, 2-(2-fluorophenylmethylthio)-5-(3,4,4-trifluoro-3-butenylthio)-1,3,4-thiadiazole]
- pest or weed control at 0.078 ppm [1]: 38%
- pest or weed control at 0.156 ppm [1]: 64%
- pest or weed control at 0.312 ppm [1]: 86%
- pest or weed control at 0.625 ppm [1]: 99%
- pest or weed control at 1.25 ppm [1]: 99%
- pest or weed control at 2.5 ppm [1, 2]: 100%
- pest or weed control at 2.5 ppm (lesion nematode; Table 5, rate 2.5 ppm): 52%
- pest or weed control at 5 ppm (root-knot nematode; BOTTOM container): 8%
- pest or weed control at 5 ppm (root-knot nematode; MIDDLE container): 67%
- pest or weed control at 5 ppm (root-knot nematode; TOP container): 98%
- inhibition at 5 ppm (Caenorhabditis elegans; Table 9 screen, 5 ppm): 100%
- mortality at 5 ppm (Caenorhabditis elegans; Table 9 screen, 5 ppm): 25%
- mortality at 5 ppm (Caenorhabditis elegans; Table 10 evaluation, 5 ppm): 100%
- inhibition at 1.25 ppm (Caenorhabditis elegans; Table 10 evaluation, 1.25 ppm): 0%
- mortality at 1.25 ppm (Caenorhabditis elegans; Table 10 evaluation, 1.25 ppm): 0%
- inhibition at 2.5 ppm (Caenorhabditis elegans; Table 10 evaluation, 2.5 ppm): 100%
- mortality at 2.5 ppm (Caenorhabditis elegans; Table 10 evaluation, 2.5 ppm): 100%

Compound: FC(F)=C(F)CCSc1nnc(-c2ccc(Cl)cc2)s1 [Compound 37, 2-(4-chlorophenyl)-5-(3,4,4-trifluoro-3-butenylthio)-1,3,4-thiadiazole]
- pest or weed control at 0.078 ppm [1]: 0%
- pest or weed control at 0.156 ppm [1]: 0%
- pest or weed control at 0.312 ppm [1]: 0%
- pest or weed control at 0.625 ppm [1]: 0%
- inhibition at 5 ppm (Caenorhabditis elegans; Table 9 screen, 5 ppm): 100%
- mortality at 5 ppm (Caenorhabditis elegans; Table 9 screen, 5 ppm): 100%
- mortality at 5 ppm (Caenorhabditis elegans; Table 10 evaluation, 5 ppm): 100%
- inhibition at 1.25 ppm (Caenorhabditis elegans; Table 10 evaluation, 1.25 ppm): 100%
- mortality at 1.25 ppm (Caenorhabditis elegans; Table 10 evaluation, 1.25 ppm): 100%
- inhibition at 2.5 ppm (Caenorhabditis elegans; Table 10 evaluation, 2.5 ppm): 100%
- mortality at 2.5 ppm (Caenorhabditis elegans; Table 10 evaluation, 2.5 ppm): 100%
